# Experimental data reported in patent US5780441A, “Sphingoglycolipid compounds and therapeutic uses thereof” (Kirin Beer Kabushiki Kaisha, priority 1993, dated 1998).
# Assays:
# [1] = tested on: P388 mouse leukemia cells; assay: Life-span-prolonging (anti-tumor) effect on mice subcutaneously inoculated with P388 mouse leukemia cells; type: in vivo, mouse (CDF1 female); details: for Survival days ave. ± s. d.: all marked ** (p < 0.01)
# In short: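 CDF1 female mice (6 weeks), 5 per group, inoculated subcutaneously with P388 leukemia cells; life-span prolongation assessed. Lentinan and picibanil given intravenously on days 1, 3, 5, 7 and 9 after implantation; sizofilan given subcutaneously on days 1 through 9. Statistics by Mann-Whitney test.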
# [2] = tested on: mouse splenic lymphocyte; assay: In vitro mouse splenic lymphocyte-proliferation-stimulating effect (3H-TdR uptake); type: cell-based, mouse (BDF1 female); details: 2 days; for Uptake of 3H-TdR (% of control), splenic lymphocytes: 2880 min
# In short: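 Spleen cells from 6-week-old female BDF1 mice, 2×10^6 cells/ml in 10% FCS RPMI 1640, cultured with vehicle or sample 2 days at 37° C, 5% CO2. ^3H-TdR (0.5 μCi/well) uptake over 6 h by scintillation counting, expressed as % of vehicle.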
# [3] = tested on: mouse splenic lymphocytes; assay: Influence of Polysorbate on immunostimulating effect (3H-TdR uptake into mouse splenic lymphocytes); type: cell-based, mouse (BDF1 female); details: for 3H-TdR uptake: mean of 3 wells
# Procedure: Experiment was performed with BDF1 female mice (6 weeks old) purchased from NIPPON SLC K.K. Spleens were removed from mice, and spleen cells were brayed with slide glasses and hemolized with NH4 Cl. 2×10^6cells/ml of the spleen cells which had been hemolized were suspended in 10% FCS RPMI 1640. The cell suspension (100 μl/well) and a vehicle or sample (10 μl/well) which was prepared so as to have a final level shown in Table 3 were added into wells of a round-bottomed 96 well plate, and cultured under the condition of 5% CO2 at 37° C. for 2 days. 0.5 μCi/well of ^3 H-thymidine (^3 H-TdR) was added. After 6 hours, the cells were harvested, and the amount of ^3 H-TdR uptaken into nucleus was measured by a liquid scintillation counter. The ratio (%) of the uptake of ^3 H-TdR in the sample group to that in the vehicle group was calculated and used as the in vitro mouse splenic lymphocyte-proliferation-stimulating rate.
# A sample of a solution of 1 mg of Compound 33 prepared in Experimental Example 8 in 1 ml of 10% or 0.1% Polysorbate 20, a sample of a solution of 1 mg of Compound b in 1 ml of 10% Polysorbate 20, or 10% and 0.1% Polysorbate 20, were prepared by subjecting to aseptic filtration followed by sequential 10 time dilution with PBS as shown in Table 5 in order to carry out the experiment described in Experimental Example 6.
# In this connection, 1 mg of Compound b was insoluble in 0.1% Polysorbate, and thus no experiment was conducted.
# [4] = tested on: mouse bone marrow cells; assay: In vitro mouse bone marrow cell-proliferation-promoting effect (3H-TdR uptake); type: cell-based, mouse (BDF1 female); details: 4 days; for Uptake of 3H-TdR (% of control), bone marrow cells: 5760 min
# In short: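 Femoral bone marrow monocytes from 6-week female BDF1 mice (Lympholite M fraction, 1×10^6 cells/ml in 10% FCS RPMI 1640) cultured with sample for 4 days at 37 °C, 5% CO2. 3H-TdR (0.5 μCi/well) added for final 6 h; uptake ratio versus vehicle reported as activation rate.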
# [5] = Solubility in water in aqueous Polysorbate 20 solutions; type: physicochemical; details: vs Compound b
# Procedure: Compounds a and b comprising a monosaccharide as a constituent sugar which are disclosed in WO 93/05055 were synthesized as above. A 1 mg of each of the present compounds 4, 31 and 33 and Compound a and b was dissolved in 1 ml of an aqueous Polysorbate 20 solution in a variety of concentrations in order to observe visually the property.
# [6] = tested on: mixed lymphocyte culture reaction (spleen cells of C57BL/6 and BALB/C mice); assay: Mixed lymphocyte culture reaction (MLR); type: cell-based, mouse (C57BL/6 stimulator, BALB/C responder); details: 42 hours; for MLR activating rate (%): 2520 min
# In short: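 Mouse one-way MLR: mitomycin C-treated (50 μg/ml, 30 min) C57BL/6 spleen cells stimulated BALB/C responder spleen cells, 2×10^6 cells/ml each, cultured 42 h at 37 °C with sample. ³H-thymidine (0.5 μCi/well) incorporation over a further 8 h gave MLR activating rate as % of vehicle uptake.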
# [7] = tested on: lethally irradiated mice; assay: Radioprotective effect: life-span prolongation of lethally irradiated mice; type: in vivo, mouse (BDF1 female); details: 0.1 mg/kg i.v. days 0, 4, 8, 9 Gy X-ray, groups of 10, 0.1 mg/kg
# In short: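 Female BDF1 mice (6 weeks, groups of 10) given 9 Gy X-ray on day 0, then compound 0.1 mg/kg intravenously by tail vein on days 0, 4 and 8. Survival followed for 40 days.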
# [8] = tested on: B16 mouse melanoma cells; assay: Tumor growth inhibition in mice subcutaneously inoculated with B16 mouse melanoma cells; type: in vivo, mouse (BDF1 female); details: 0.1 mg/kg i.v. days 1, 5, 9; maximum during 20 days
# In short: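 Female BDF1 mice (6 weeks, n=6/group) bearing subcutaneous B16 melanoma. Tumor volume [(length×width×height)/2] measured on days 8, 12, 16 and 20 after implantation; growth inhibition rate computed from treated vs control tumor volumes.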
# [9] = 0.1 mg/kg i.v. on days 1, 5 and 9
compound,measurement,setting,value
"CCCCCCCCCCCCCCCCCCCCCCCCCC(=O)N[C@@H](CO[C@H]1O[C@H](CO[C@H]2O[C@H](CO)[C@H](O)[C@H](O)[C@H]2O)[C@H](O)[C@H](O)[C@H]1O)[C@H](O)[C@H](O)CCCCCCCCCCCCCC [Compound 33, O-α-D-galactopyranosyl-(1→6)-O-α-D-galactopyranosyl-(1→1)-(2S,3S,4R)-2-amino-N-hexacosanoyl-1,3,4-octadecanetriol]",Survival days ave. ± s. d.,[1]; [9],15.0 ± 0.7 days
same,response vs control in vivo at 0.1 mg/kg,"[1]; Mus musculus, P388, iv, 0.1 mg/kg i.v. on days 1, 5 and 9, survival vs vehicle, read-out: T/C (%)",117%
same,"life-span-prolonging effect (anti-tumor effect), in words",[1]; P388 s.c. system,intensive anti-tumor effects almost in the same level as that of Compound b
same,activity at 1 µg/mL,"[2]; Mus musculus, Splenic lymphocyte, 48 h, 10^0 μg/ml, read-out: Uptake of 3H-TdR (% of control), splenic lymphocytes",954%
same,"3H-TdR-uptake-stimulating effect, in words",[3]; 10 μg/ml (0.001% Polysorbate 20),intensive ^3 H-TdR-uptake-stimulating effect
same,"3H-TdR uptake in words, compound with Polysorbate 20",[3]; 10 μg/ml (0.1% Polysorbate 20) and 1 μg/ml (0.01%) vs 0.1 μg/ml (0.001%),suppressed
same,3H-TdR uptake,"[3]; 0.1% PS20 stock (compound 1 mg/ml), dilution 10^2",24213 cpm
same,3H-TdR uptake,"[3]; 0.1% PS20 stock (compound 1 mg/ml), dilution 10^3",23332 cpm
same,3H-TdR uptake,"[3]; 0.1% PS20 stock (compound 1 mg/ml), dilution 10^4",26249 cpm
same,3H-TdR uptake,"[3]; 0.1% PS20 stock (compound 1 mg/ml), dilution 10^5",23653 cpm
same,3H-TdR uptake,"[3]; 10% PS20 stock (compound 1 mg/ml), dilution 10^2",119 cpm
same,3H-TdR uptake,"[3]; 10% PS20 stock (compound 1 mg/ml), dilution 10^3",18447 cpm
same,3H-TdR uptake,"[3]; 10% PS20 stock (compound 1 mg/ml), dilution 10^4",24671 cpm
same,3H-TdR uptake,"[3]; 10% PS20 stock (compound 1 mg/ml), dilution 10^5",21677 cpm
same,activity at 0.1 µg/mL,"[4]; Mus musculus, Bone marrow cell, 96 h, 10^-1 μg/ml, read-out: Uptake of 3H-TdR (% of control), bone marrow cells",214%
same,activity at 0.01 µg/mL,"[4]; Mus musculus, Bone marrow cell, 96 h, 10^-2 μg/ml, read-out: Uptake of 3H-TdR (% of control), bone marrow cells",763%
same,"amount of Polysorbate 20 required for dissolving, relative to that required for Compound b",[5],1/100
same,activity at 1 µg/mL,"[6]; Mus musculus, Lymphocyte, 1 × 10^0 μg/ml, read-out: MLR activating rate (%)",302%
same,activity at 0.1 µg/mL,"[6]; Mus musculus, Lymphocyte, 1 × 10^-1 μg/ml, read-out: MLR activating rate (%)",251%
"CCCCCCCCCCCCCCCCCCCCCC[C@@H](O)C(=O)N[C@@H](CO[C@H]1O[C@H](CO)[C@H](O)[C@H](O[C@H]2O[C@H](CO)[C@H](O)[C@H](O)[C@H]2NC(C)=O)[C@H]1O[C@H]1O[C@H](CO)[C@@H](O)[C@H](O)[C@H]1O)[C@H](O)[C@H](O)CCCCCCCCCCCCCC [Compound 4, O-(N-acetyl-2-amino-2-deoxy-α-D-galactopyranosyl)-(1→3)-O-[α-D-glucopyranosyl-(1→2)]-O-α-D-galactopyranosyl-(1→1)-(2S,3S,4R)-2-amino-N-[(R)-2-hydroxytetracosanoyl]-1,3,4-octadecanetriol]",Survival days ave. ± s. d.,[1]; [9],15.2 ± 0.5 days
same,T/C (%),"[1]; 0.1 mg/kg i.v. on days 1, 5 and 9, survival vs vehicle",119%
same,Number of surviving mice,[7]; day 10,10 mice
same,Number of surviving mice,[7]; day 15,8 mice
same,Number of surviving mice,[7]; day 20,8 mice
same,Number of surviving mice,[7]; day 25,6 mice
same,Number of surviving mice,[7]; day 30,5 mice
same,Number of surviving mice,[7]; day 35,5 mice
same,Number of surviving mice,[7]; day 40,5 mice
same,"Uptake of 3H-TdR (% of control), splenic lymphocytes",[2]; 10^0 μg/ml,792 % of control
same,"Uptake of 3H-TdR (% of control), splenic lymphocytes",[2]; 10^-1 μg/ml,692 % of control
same,"Uptake of 3H-TdR (% of control), splenic lymphocytes",[2]; 10^-2 μg/ml,395 % of control
same,"Uptake of 3H-TdR (% of control), splenic lymphocytes",[2]; 10^-3 μg/ml,325 % of control
same,"Uptake of 3H-TdR (% of control), bone marrow cells",[4]; 10^-1 μg/ml,512 % of control
same,"Uptake of 3H-TdR (% of control), bone marrow cells",[4]; 10^-2 μg/ml,163 % of control
same,"amount of Polysorbate 20 required for dissolving, relative to that required for Compound b",[5],1/100
same,"Maximum tumor growth inhibiting rate, TGIR (%)",[8],84.0%
same,MLR activating rate (%),[6]; 1 × 10^0 μg/ml,209%
same,MLR activating rate (%),[6]; 1 × 10^-1 μg/ml,163%
